These results are taken from ChEMBL document CHEMBL1154535, “3-Hydroxyisoquinolines as inhibitors of HCV NS5b RNA-dependent RNA polymerase” (Bioorg Med Chem Lett, 2009).

SMILES strings stand for the structures. Converted amounts (≈) assume the structure as drawn.

Series [1] deals with Hepatitis C virus. Kind of series: Antiviral activity against HCV 1b in Huh-7/2209-23 cells by replicon assay. Type of series: functional, organism-based, Hepacivirus hominis. Particulars: genotype 1b. (In general: A replicon is a self-replicating genome or part of one, used to study replication in cells.)
For series [2], the system named is Hepatitis C virus. Nature of the series: Inhibition of HCV 1b NS5B polymerase. Details: species or system Hepatitis C virus subtype 1b.
Series [3] is described as follows: Aqueous solubility of compound. Type of series: physicochemical. Particulars: buffer.

On to `O=S1(=O)N=C(c2nc(Cc3ccc(F)cc3)c3ccccc3c2O)c2cccc(-c3cncnc3)c21`, for which the IC50 – broadly, the concentration that gives 50% inhibition – in the series on Hepatitis C virus [1] was found to be 380 nM; in the series with Hepatitis C virus [2], 1800 nM. The concentration in solution in series [3] (solubility) was 9 µg/mL (≈ 18.1 µM).
With `O=S1(=O)N=C(c2nc(Cc3ccc(F)cc3)c3ccccc3c2O)c2cccc(-c3cccnc3)c21`, the 50% inhibitory concentration (IC50) in the series with Hepatitis C virus [1] turned out to be 150 nM; with Hepatitis C virus [2], 550 nM. In addition, the solubility (in general, how much of the substance goes into solution per volume) in series [3] is 3 µg/mL (≈ 6.05 µM).
For the compound `O=S1(=O)N=C(c2nc(Cc3ccc(F)cc3)c3ccccc3c2O)c2cccc(-c3cn[nH]c3)c21`, the IC50 in the series on Hepatitis C virus [1] was determined as 780 nM; in the series with Hepatitis C virus [2] it was 720 nM.
On to `O=S1(=O)N=C(c2nc(Cc3ccc(F)cc3)c3ccccc3c2O)c2cccc(-c3cccc(O)c3)c21`, for which the IC50 with Hepatitis C virus [1] came out at 1100 nM; in the series with Hepatitis C virus [2], 350 nM. The compound also came in with a solubility in series [3] of 3 µg/mL (≈ 5.88 µM).
The corresponding values for `COc1cccc2c1S(=O)(=O)N=C2c1nc(Cc2ccc(F)cc2)c2ccccc2c1O` are 760 nM, 610 nM and 40 µg/mL (≈ 89.2 µM).
The like results for `O=S1(=O)N=C(c2nc(CCC3CC3)c3ccccc3c2O)c2ccccc21` were, in that order, 2700 nM, 1000 nM and 10 µg/mL (≈ 26.4 µM).
`O=S1(=O)N=C(c2nc(Cc3ccc(F)cc3)c3ccccc3c2O)c2ccccc21` showed an IC50 with Hepatitis C virus [1] of 440 nM. Besides, the solubility in series [3] is 16 µg/mL (≈ 38.2 µM).
In the case of `CC(=O)Nc1cccc(-c2cccc3c2S(=O)(=O)N=C3c2nc(Cc3ccc(F)cc3)c3ccccc3c2O)c1`, the figures for the IC50 in the series on Hepatitis C virus [1] and with Hepatitis C virus [2] were 940 nM and 530 nM, respectively. For the same compound, in series [3], the solubility is 17 µg/mL (≈ 30.8 µM).
For the compound `O=S1(=O)N=C(c2nc(Cc3ccccc3)c3ccccc3c2O)Nc2ccccc21`, in the series on Hepatitis C virus [2], the IC50 is 47000 nM.
On the same count and under the same terms, to `CC(C)CCc1nc(C2=NS(=O)(=O)c3ccccc32)c(O)c2ccccc12` belongs 4500 nM.
For `O=c1ccc(-c2cccc3c2S(=O)(=O)N=C3c2nc(Cc3ccc(F)cc3)c3ccccc3c2O)c[nH]1`, the values for the IC50 in the series on Hepatitis C virus [1] and in the series with Hepatitis C virus [2] were 75 nM and 410 nM, respectively. Further, the solubility in series [3] worked out at 7 µg/mL (≈ 13.7 µM).
On to `CC(C)CCc1nc(C2=NS(=O)(=O)c3ccccc3N2)c(O)c2ccccc12`, for which, in the series on Hepatitis C virus [2], it took 51000 nM to reach half-maximal inhibition (IC50).
With `O=S1(=O)N=C(c2nc(Cc3ccc(F)cc3)c3ccccc3c2O)c2cccc(-c3ccccc3)c21`, the half-maximal inhibitory concentration (IC50) with Hepatitis C virus [1] is 800 nM; in the series with Hepatitis C virus [2], 3900 nM. Besides, the concentration in solution in series [3] (solubility) was 41 µg/mL (≈ 82.9 µM).
The corresponding values for `O=c1cccc(-c2cccc3c2S(=O)(=O)N=C3c2nc(Cc3ccc(F)cc3)c3ccccc3c2O)[nH]1` are 400 nM, 730 nM and 6 µg/mL (≈ 11.7 µM).
As for `O=S1(=O)N=C(c2nc(Cc3ccc(F)cc3)c3ccccc3c2O)c2cccc(Cl)c21`, the half-inhibitory concentration (IC50) in the series on Hepatitis C virus [1] came to 430 nM; in the series on Hepatitis C virus [2], 580 nM. In series [3], this compound returned a solubility of 2 µg/mL (≈ 4.42 µM).
